For one compound, ED50 results are on record in patent publication US20040235900A1, “Antimicrobial oxazolifinones with improved pharmacokinetic profile and safety advantages” (priority 2002, published 2004).

The test system of this experiment is MRSA 32. Put plainly: Murine assay procedure (systemic MRSA 32 infection, oral treatment). In kind it is in vivo, swiss mice. To be noted: Staphylococcus aureus; oral administration, doses 1 hr and 4 hrs after infection; MRSA 32 infected mice; percentage survival on Day 7. The protocol:
Oxazolidinone new chemical entities (NCEs) were evaluated for their in vivo efficacy in a murine infection caused by multi-drug resistant, methicillin resistant Staphylococcus aureus strain, referred to as MRSA 32, a clinical isolate obtained from a hospitalised patient. The procedure used for the murine assay is as follows:
Four weeks old swiss mice of 18-22 gm body weight were infected with MRSA 32 strain suspended in 5% Hog gastric Mucin. The infecting dose of bacteria was set at 1-2×10^8 CFU/animal. The infecting dose was administered in 0.5 ml volume injected into peritonial cavity of mice. The treatment with oxazolidinone NCEs was started one hour after infection by administering 100-200 μl of the suspensions of oxazolidinone compounds in 5% Tween 80 by oral gavage. A repeat dose was similarly administered 3 hrs later. Each oxazolidinone NCE was tested at 2-3 different dosages in the range of 2.5 mg/kg to 20 mg/kg. In each dose group 6 mice were included. As an infection control group 12 mice were infected with MRSA 32 strain without giving any treatment. Normally untreated infected mice die within 24 hrs. due to the systemic spread of infection through out the animal body. […] For compounds affording protection of MRSA infected mice, ED50 dosages were calculated on the basis of percentage survival on Day 7 after infection.
The in-vivo ED50 values using the test compounds were determined essentially by the method as described in PCT WO 95/25106, U.S. Pat. No. 5,668,286 and EP 0 750 618 B1.

Structures are written as SMILES.

Usually ED50 stands for the midpoint of the dose-response relation.

In turn, `CC(=O)NC[C@H]1CN(c2ccc(N3CCC(CC#N)CC3)c(F)c2)C(=O)O1` [Compound 4, (S)-N-{3-[4-(4-cyanomethyl-piperidin-1-yl)-3-fluoro-phenyl]-2-oxo-oxazolidin-5-ylmethyl}-acetamide] yielded a median effective dose (ED50) of 2.5 to 5 mg/kg.
